This is an account of results in US12194084B2 (priority 2019, dated 2025).

This assay deals with CD1b-restricted MA-specific TCR transgenic DN1 T cells. It is filed as cell-based, mouse.

Turning to mycolic acid [MA], the “IFN-γ production by DN1 T cells to MA-pulsed DC (ELISPOT)” value was “produced IFN-γ” and the “activation of DN1 T cells (CD69, CD25, IFN-γ)” value is listed as “able to activate DN1 T cells”.
